In patent publication US11384062B2 (CombiPhos Catalysts, Inc., priority 2017, dated 2022):

Experiment: Metabolic stability in pooled rat liver microsomes
Conditions: for CLint scaled at 0.5 µM: pH 7.4, Clint; for half-life at 0.5 µM: pH 7.4, T1/2
Description: Buffer solutions were prepared as follows: • a. Buffer A: 0.1 M monobasic potassium phosphate buffer containing 1.0 mM EDTA. • b. Buffer B: 0.1 M dibasic potassium phosphate buffer containing 1.0 mM EDTA. • c. Buffer C: 0.1 M potassium phosphate buffer containing 1.0 mM EDTA was adjusted to pH 7.4 by titrating 700 mL of Buffer B with Buffer A while monitoring with a pH meter. • 2. An NADPH stock solution (6 mM) was prepared by dissolving NADPH into Buffer C. • 3. Spiking solutions were prepared for the reference compound (ketanserin) and the test compounds as follows: • a. A 500 μM spiking solution of the reference compound (ketanserin) was generated by adding 10 μL of a 10 mM stock solution of ketanserin in DMSO into 190 μL acetonitrile. A 1.5 μM spiking solution in microsomes (0.75 mg/mL) was generated by adding 1.5 μL of the 500 μM spiking solution and 18.75 μL of 20 mg/mL rat liver microsomes into 479.75 μL of Buffer C while cooling with ice. • b. […] A 0.75 μM spiking solution in microsomes (0.75 mg/mL) was generated by adding 1.5 μL of the 250 μM spiking solution and 18.75 μL of 20 mg/mL rat liver microsomes into 479.75 μL of Buffer C while cooling with ice. • 4. 30 μL of 1.5 μM spiking solution containing 0.75 mg/mL microsomes solution was dispensed into assay plates designated for different time points (0 min, 5 min, 15 min, 30 min, and 45 min; or 0 min, 15 min, 30 min, 45 min, and 60 min as shown in Tables 1-5 below) while cooling with ice. • 5. For the 0 min time point assay plate, 135 μL of ACN containing IS followed immediately by 15 μL of the 6 mM NADPH stock solution were added to the wells of the 0 min assay plate. • 6. All assay plates other than the 0 min assay plate were pre-incubated at 37° C. for 5 min, and then 15 μL of the 6 mM NADPH stock solution was added to the wells of the assay plates to start the reaction and timing. At the appropriate time (5 min, 15 min, 30 min, 45 min, or 60 min), 135 μL of ACN containing IS was added to the wells of the corresponding assay plates, respectively, to stop the reaction. • 7. After quenching, the plates were shaken in a vibrator (IKA, MTS 2/4) for 10 min (600 rpm/min) and then centrifuged at 5594 g for 15 min (Thermo Multifuge×3R). • 8. After centrifugation, 50 μL of the supernatant from each well was transferred into a 96-well sample plate containing 50 μL of ultrapure water (Millipore, ZMQS50F01) for LC/MS analysis.

[1] = rat liver microsomes, Table 2 (Example 17)
[2] = rat liver microsomes, Table 1 (Example 16)
[3] = rat liver microsomes, Table 3 (Example 18)
[4] = rat liver microsomes, Table 5 (Example 20)
[5] = rat, microsomes, 0 h, 0.5 µM, pH 7.4
[6] = rat, microsomes, 0.25 h, 0.5 µM, pH 7.4
[7] = rat, microsomes, 0.5 h, 0.5 µM, pH 7.4
[8] = rat, microsomes, 0.75 h, 0.5 µM, pH 7.4
[9] = rat, microsomes, 1 h, 0.5 µM, pH 7.4
[10] = rat, microsomes, 0.5 µM, pH 7.4

## NC(=O)c1cccc2cn(-c3ccc([C@@H]4CCCNC4)cc3)nc12 (racemic) [racemic niraparib]
Rat liver microsomes, 0 min, Table 1 (Example 16)
  Percent Remaining (%) 0 min: 100.00%
Rat liver microsomes, 0 min, Table 2 (Example 17)
  Percent Remaining (%) 0 min: 100%
Rat liver microsomes, 0 min, Table 3 (Example 18)
  Percent Remaining (%) 0 min: 100.00%
Rat liver microsomes, 0 min, Table 5 (Example 20)
  Percent Remaining (%) 0 min: 100.00%
[1]
  Percent Remaining (%) 5 min: 116.67%
  Clint: 24.43 mL/min/kg
  T1/2: 1.6945 h
Rat liver microsomes, 15 min, Table 1 (Example 16)
  Percent Remaining (%) 15 min: 89.16%
Rat liver microsomes, 15 min, Table 2 (Example 17)
  Percent Remaining (%) 15 min: 95.83%
Rat liver microsomes, 15 min, Table 3 (Example 18)
  Percent Remaining (%) 15 min: 92.47%
Rat liver microsomes, 15 min, Table 5 (Example 20)
  Percent Remaining (%) 15 min: 77.23%
Rat liver microsomes, 30 min, Table 1 (Example 16)
  Percent Remaining (%) 30 min: 75.88%
Rat liver microsomes, 30 min, Table 2 (Example 17)
  Percent Remaining (%) 30 min: 83.18%
Rat liver microsomes, 30 min, Table 3 (Example 18)
  Percent Remaining (%) 30 min: 65.45%
Rat liver microsomes, 30 min, Table 5 (Example 20)
  Percent Remaining (%) 30 min: 65.45%
Rat liver microsomes, 45 min, Table 1 (Example 16)
  Percent Remaining (%) 45 min: 69.11%
Rat liver microsomes, 45 min, Table 2 (Example 17)
  Percent Remaining (%) 45 min: 81.48%
Rat liver microsomes, 45 min, Table 3 (Example 18)
  Percent Remaining (%) 45 min: 51.57%
Rat liver microsomes, 45 min, Table 5 (Example 20)
  Percent Remaining (%) 45 min: 53.43%
Rat liver microsomes, 60 min, Table 1 (Example 16)
  Percent Remaining (%) 60 min: 60.43%
Rat liver microsomes, 60 min, Table 3 (Example 18)
  Percent Remaining (%) 60 min: 50.17%
Rat liver microsomes, 60 min, Table 5 (Example 20)
  Percent Remaining (%) 60 min: 42.23%
[2]
  Clint: 30.15 mL/min/kg
  T1/2: 1.373 h
[3]
  Clint: 46.91 mL/min/kg
  T1/2: 0.8825 h
[4]
  Clint: 50.00 mL/min/kg
  T1/2: 0.828 h

## [2H]c1c([2H])c(C2([2H])C([2H])([2H])NC([2H])([2H])C([2H])([2H])C2([2H])[2H])c([2H])c([2H])c1-n1cc2cccc(C(N)=O)c2n1 (stereo not drawn) [Example 2, 2-(4-(piperidin-3-yl-2,2,3,4,4,5,5,6,6-d9)phenyl-2,3,5,6-d4)-2H-indazole-7-carboxamide]
[5]
  Percent Remaining (%) 0 min: 100.00%
[6]
  Percent Remaining (%) 15 min: 93.04%
[7]
  Percent Remaining (%) 30 min: 80.95%
[8]
  Percent Remaining (%) 45 min: 75.60%
[9]
  Percent Remaining (%) 60 min: 69.05%
rat, microsomes
  CLint scaled at 0.5 µM: 22.7 mL/min/kg
  half-life at 0.5 µM: 1.83 h

## [2H]C1NC([2H])C([2H])(c2ccc(-n3cc4cccc(C(N)=O)c4n3)cc2)C([2H])C1[2H] (stereo not drawn) [Example 5, 2-(4-(piperidin-3-yl-2,3,4,5,6-d5)phenyl)-2H-indazole-7-carboxamide]
[5]
  Percent Remaining (%) 0 min: 100.00%
[6]
  Percent Remaining (%) 15 min: 108.00%
[7]
  Percent Remaining (%) 30 min: 89.02%
[8]
  Percent Remaining (%) 45 min: 81.33%
[9]
  Percent Remaining (%) 60 min: 80.31%
rat, microsomes
  CLint scaled at 0.5 µM: 17.2 mL/min/kg
  half-life at 0.5 µM: 2.4 h

## [2H]c1c([2H])c(-n2cc3cccc(C(N)=O)c3n2)c([2H])c([2H])c1C1C([2H])NC([2H])C([2H])C1[2H] (stereo not drawn) [Example 6]
[5]
  Percent Remaining (%) 0 min: 100%
[10]
  Percent Remaining (%) 5 min: 112%
[6]
  Percent Remaining (%) 15 min: 100%
[7]
  Percent Remaining (%) 30 min: 88.27%
[8]
  Percent Remaining (%) 45 min: 85.02%
rat, microsomes
  CLint scaled at 0.5 µM: 18.8 mL/min/kg
  half-life at 0.5 µM: 2.2 h

## [2H]C1NC([2H])C(c2ccc(-n3cc4cccc(C(N)=O)c4n3)cc2)C([2H])C1[2H] (stereo not drawn) [Example 7, 2-(4-(piperidin-3-yl-2,4,5,6-d4)phenyl)-2H-indazole-7-carboxamide]
[5]
  Percent Remaining (%) 0 min: 100%
[10]
  Percent Remaining (%) 5 min: 112.62%
[6]
  Percent Remaining (%) 15 min: 94.47%
[7]
  Percent Remaining (%) 30 min: 84.9%
[8]
  Percent Remaining (%) 45 min: 83.06%
rat, microsomes
  CLint scaled at 0.5 µM: 21.1 mL/min/kg
  half-life at 0.5 µM: 1.96 h

## [2H]c1c([2H])c(-n2cc3cccc(C(N)=O)c3n2)c([2H])c([2H])c1C1CCCNC1 (stereo not drawn) [Example 8, 2-(4-(piperidin-3-yl)phenyl-2,3,5,6-d4)-2H-indazole-7-carboxamide]
[5]
  Percent Remaining (%) 0 min: 100.00%
[6]
  Percent Remaining (%) 15 min: 91.49%
[7]
  Percent Remaining (%) 30 min: 79.13%
[8]
  Percent Remaining (%) 45 min: 80.74%
[9]
  Percent Remaining (%) 60 min: 56.02%
rat, microsomes
  CLint scaled at 0.5 µM: 30.7 mL/min/kg
  half-life at 0.5 µM: 1.35 h

## [2H]c1c([2H])c(C2([2H])CCCNC2[2H])c([2H])c([2H])c1-n1cc2cccc(C(N)=O)c2n1 (stereo not drawn) [Example 9, 2-(4-(piperidin-3-yl-2,3-d2)phenyl-2,3,5,6-d4)-2H-indazole-7-carboxamide]
rat, 0.5 µM, pH 7.4
  increase in rat liver microsome metabolic stability: 64%
[5]
  Percent Remaining (%) 0 min: 100.00%
[6]
  Percent Remaining (%) 15 min: 98.91%
[7]
  Percent Remaining (%) 30 min: 83.70%
[8]
  Percent Remaining (%) 45 min: 79.62%
[9]
  Percent Remaining (%) 60 min: 75.27%
rat, microsomes
  CLint scaled at 0.5 µM: 18.8 mL/min/kg
  half-life at 0.5 µM: 2.21 h

## [2H]c1c([2H])c(-n2nc3c(C(N)=O)cccc3c2[2H])c([2H])c([2H])c1[C@@H]1CCCNC1 [Example 15, (S)-2-(4-(piperidin-3-yl)phenyl-2,3,5,6-d4)-2H-indazole-3-d-7-carboxamide]
[5]
  Percent Remaining (%) 0 min: 100.00%
[6]
  Percent Remaining (%) 15 min: 77.88%
[7]
  Percent Remaining (%) 30 min: 67.35%
[8]
  Percent Remaining (%) 45 min: 56.14%
[9]
  Percent Remaining (%) 60 min: 44.60%
rat, microsomes
  CLint scaled at 0.5 µM: 46.4 mL/min/kg
  half-life at 0.5 µM: 0.892 h
